Measured values taken from patent publication US10413535B2, “Pharmaceutical compositions comprising an integrin ALPHA4 antagonist for use in treating ocular inflammatory conditions” (AXEROVISION, INC., priority 2015, dated 2019).
Where two headings read alike, the source gives them in different places.

Key:
[1] = tested on: J6 cell adhesion to MAdCAM; assay: MAdCAM cell adhesion assay, J6 cells; assay type: cell-based, human
Method: Jurkat J6 cells (human lymphoblast cell line) were grown as a suspension culture in RPMI 1640 supplemented with FCS (10%) and glutamine (2 mM). RPMI8866 cells (human B lymphoid cell line) were grown as a suspension culture in RPMI 1640 supplemented with FCS (10%) and glutamine (2 mM). RBL-2H3 cells (rat basophilic cell line) were cultured in Eagle's MEM plus Earles salts supplemented with 2 mM L-glutamine, 1 mM sodium pyruvate, 1× non-essential amino acids, 1 mM Na pyruvate 10% heat inactivated foetal calf serum.
Polystyrene 96-well microtitre plates were coated with IgG at a concentration of 0.05 mg/mL in bicarbonate buffer for 2.5 hours at 37° C. The solution was aspirated and the plates washed twice with PBS. The plates were then incubated overnight at 4° C. with MAdCAM at a concentration of 204.0 ng/mL in 3% BSA in PBS. Prior to use the MAdCAM was aspirated and the plates washed twice with PBS. J6 or RPMI cells (as required) were labelled with the fluorescent dye BCECF-AM (10 μM and 6×10^6 cells/mL) for 10 min at 37° C. before the excess was removed by centrifugation at 500 g for 5 min and the cells resuspended at a cell concentration of 1.2×10^7 cells/mL in HBSS. Equal volumes of HBSS containing the compound of formula I (over concentration range 38.1 pM to 10 μM) and cells were added to the MAdCAM coated plates. […] The plates were counted in a Wallac Viktor.

[2] = Toxicokinetics in 13-week topical ocular rabbit study; details: New Zealand White, in vivo, topical or ocular
Method: GW559090A was given to New Zealand White Rabbits by topical ocular administration for 13 weeks. Animals were dosed six or twelve times per day, with one hour between doses. Treatment groups were: (1) vehicle (12 times a day), (2) 30 mg/mL/occasion given six times a day, (3) 50 mg/mL/occasion given six times a day, or (4) 50 mg/mL/occasion, given 12 times a day.
GW559090A was formulated as a stock solution in 25 mM phosphate buffer with 0.5% sodium chloride to provide a 50 mg/mL stock solution, which was used for administration to Groups 3 or 4, or further diluted with 25 mM phosphate buffer with 0.75% sodium chloride to provide a 30 mg/mL solution for administration to Group 2. Control animals were treated with the vehicle for 50 mg/mL solution (25 mM phosphate buffer with 0.5% sodium chloride).
During the 13 week treatment period rabbits received daily topical ocular doses of GW559090A or vehicle at a constant dose volume of 0.06 mL (given 6 or 12 times a day, with one hour between doses). The test article formulation or vehicle was carefully dropped into the partially everted lower eyelid of the right eye from a suitable distance, to prevent contact of the positive displacement pipette with the eye. The lower and upper lids were then gently held together for approximately five seconds, to prevent loss of dose and aid even distribution across the external ocular surface. The un-dosed eye was not manipulated at any time and served as a within animal untreated control site.

[3] = female, 30 mg/mL/occasion, female rabbits, 30 mg/mL, 6 daily doses, Day 1, after the first daily dose
[4] = female, 30 mg/mL/occasion, female rabbits, 30 mg/mL, 6 daily doses, Week 4, after the first daily dose
[5] = female, 30 mg/mL/occasion, female rabbits, 30 mg/mL, 6 daily doses, Week 13, after the first daily dose
[6] = female, 50 mg/mL/occasion, female rabbits, 50 mg/mL, 6 daily doses, Day 1, after the first daily dose
[7] = female, 50 mg/mL/occasion, female rabbits, 50 mg/mL, 6 daily doses, Week 4, after the first daily dose
[8] = female, 50 mg/mL/occasion, female rabbits, 50 mg/mL, 6 daily doses, Week 13, after the first daily dose
[9] = female, 50 mg/mL/occasion, female rabbits, 50 mg/mL, 12 daily doses, Day 1, after the first daily dose
[10] = female, 50 mg/mL/occasion, female rabbits, 50 mg/mL, 12 daily doses, Week 4, after the first daily dose
[11] = female, 50 mg/mL/occasion, female rabbits, 50 mg/mL, 12 daily doses, Week 14, after the first daily dose
[12] = male, 30 mg/mL/occasion, male rabbits, 30 mg/mL, 6 daily doses, Day 1, after the first daily dose
[13] = male, 30 mg/mL/occasion, male rabbits, 30 mg/mL, 6 daily doses, Week 4, after the first daily dose
[14] = male, 30 mg/mL/occasion, male rabbits, 30 mg/mL, 6 daily doses, Week 13, after the first daily dose
[15] = male, 50 mg/mL/occasion, male rabbits, 50 mg/mL, 6 daily doses, Day 1, after the first daily dose
[16] = male, 50 mg/mL/occasion, male rabbits, 50 mg/mL, 6 daily doses, Week 4, after the first daily dose
[17] = male, 50 mg/mL/occasion, male rabbits, 50 mg/mL, 6 daily doses, Week 13, after the first daily dose
[18] = male, 50 mg/mL/occasion, male rabbits, 50 mg/mL, 12 daily doses, Day 1, after the first daily dose
[19] = male, 50 mg/mL/occasion, male rabbits, 50 mg/mL, 12 daily doses, Week 4, after the first daily dose
[20] = male, 50 mg/mL/occasion, male rabbits, 50 mg/mL, 12 daily doses, Week 14, after the first daily dose

Cc1ccccc1OCC(=O)N[C@@H](CC(C)C)C(=O)N[C@@H](Cc1ccc(OC(=O)N2CCC(C(N)=O)CC2)cc1)C(=O)O [GW559090, (2S)-3-[4-({[4-(Aminocarbonyl)-1-piperidinyl]carbonyl}oxy)phenyl]-2-[((2S)-4-methyl-2-{[2-(2-methylphenoxy)acetyl]amino}pentanoyl)amino]propanoic acid]
Inhibition of J6 cell adhesion to MAdCAM (curve form) [1]: biphasic | Cmax [2, 3]: 16 ng/mL | Tmax [2, 3]: 4.98 min | AUC(0-t) ([2]; female, 30 mg/mL/occasion, female rabbits, 30 mg/mL, 6 daily doses, Day 1, read-out: AUC0-1): 4.19 ng·h/mL | AUC(0-t) ([2]; female, 30 mg/mL/occasion, female rabbits, 30 mg/mL, 6 daily doses, Day 1, read-out: AUC0-24): 25.1 ng·h/mL | Cmax [2, 4]: 32.4 ng/mL | Tmax [2, 4]: 4.98 min | AUC(0-t) ([2]; female, 30 mg/mL/occasion, female rabbits, 30 mg/mL, 6 daily doses, Week 4, read-out: AUC0-1): 10.6 ng·h/mL | AUC(0-t) ([2]; female, 30 mg/mL/occasion, female rabbits, 30 mg/mL, 6 daily doses, Week 4, read-out: AUC0-24): 63.6 ng·h/mL | Cmax [2, 5]: 23.5 ng/mL | Tmax [2, 5]: 15 min | AUC(0-t) ([2]; female, 30 mg/mL/occasion, female rabbits, 30 mg/mL, 6 daily doses, Week 13, read-out: AUC0-1): 9.83 ng·h/mL | AUC(0-t) ([2]; female, 30 mg/mL/occasion, female rabbits, 30 mg/mL, 6 daily doses, Week 13, read-out: AUC0-24): 59 ng·h/mL | Cmax [2, 6]: 67.8 ng/mL | Tmax [2, 6]: 4.98 min | AUC(0-t) ([2]; female, 50 mg/mL/occasion, female rabbits, 50 mg/mL, 6 daily doses, Day 1, read-out: AUC0-1): 11 ng·h/mL | AUC(0-t) ([2]; female, 50 mg/mL/occasion, female rabbits, 50 mg/mL, 6 daily doses, Day 1, read-out: AUC0-24): 66 ng·h/mL | Cmax [2, 7]: 44.4 ng/mL | Tmax [2, 7]: 4.98 min | AUC(0-t) ([2]; female, 50 mg/mL/occasion, female rabbits, 50 mg/mL, 6 daily doses, Week 4, read-out: AUC0-1): 12.6 ng·h/mL | AUC(0-t) ([2]; female, 50 mg/mL/occasion, female rabbits, 50 mg/mL, 6 daily doses, Week 4, read-out: AUC0-24): 75.6 ng·h/mL | Cmax [2, 8]: 49.7 ng/mL | Tmax [2, 8]: 4.98 min | AUC(0-t) ([2]; female, 50 mg/mL/occasion, female rabbits, 50 mg/mL, 6 daily doses, Week 13, read-out: AUC0-1): 15.7 ng·h/mL | AUC(0-t) ([2]; female, 50 mg/mL/occasion, female rabbits, 50 mg/mL, 6 daily doses, Week 13, read-out: AUC0-24): 94.2 ng·h/mL | Cmax [2, 9]: 30.6 ng/mL | Tmax [2, 9]: 4.98 min | AUC(0-t) ([2]; female, 50 mg/mL/occasion, female rabbits, 50 mg/mL, 12 daily doses, Day 1, read-out: AUC0-1): 7.3 ng·h/mL | AUC(0-t) ([2]; female, 50 mg/mL/occasion, female rabbits, 50 mg/mL, 12 daily doses, Day 1, read-out: AUC0-24): 87.6 ng·h/mL | Cmax [2, 10]: 56.6 ng/mL | Tmax [2, 10]: 4.98 min | AUC(0-t) ([2]; female, 50 mg/mL/occasion, female rabbits, 50 mg/mL, 12 daily doses, Week 4, read-out: AUC0-1): 13.1 ng·h/mL | AUC(0-t) ([2]; female, 50 mg/mL/occasion, female rabbits, 50 mg/mL, 12 daily doses, Week 4, read-out: AUC0-24): 157 ng·h/mL | Cmax [2, 11]: 68 ng/mL | Tmax [2, 11]: 4.98 min | AUC(0-t) ([2]; female, 50 mg/mL/occasion, female rabbits, 50 mg/mL, 12 daily doses, Week 14, read-out: AUC0-1): 35.5 ng·h/mL | AUC(0-t) ([2]; female, 50 mg/mL/occasion, female rabbits, 50 mg/mL, 12 daily doses, Week 14, read-out: AUC0-24): 426 ng·h/mL | Cmax [2, 12]: 30.8 ng/mL | Tmax [2, 12]: 4.98 min | AUC(0-t) ([2]; male, 30 mg/mL/occasion, male rabbits, 30 mg/mL, 6 daily doses, Day 1, read-out: AUC0-1): 7.86 ng·h/mL | AUC(0-t) ([2]; male, 30 mg/mL/occasion, male rabbits, 30 mg/mL, 6 daily doses, Day 1, read-out: AUC0-24): 47.2 ng·h/mL | Cmax [2, 13]: 51.4 ng/mL | Tmax [2, 13]: 4.98 min | AUC(0-t) ([2]; male, 30 mg/mL/occasion, male rabbits, 30 mg/mL, 6 daily doses, Week 4, read-out: AUC0-1): 9.23 ng·h/mL | AUC(0-t) ([2]; male, 30 mg/mL/occasion, male rabbits, 30 mg/mL, 6 daily doses, Week 4, read-out: AUC0-24): 55.4 ng·h/mL | Cmax [2, 14]: 11.8 ng/mL | Tmax [2, 14]: 4.98 min | AUC(0-t) ([2]; male, 30 mg/mL/occasion, male rabbits, 30 mg/mL, 6 daily doses, Week 13, read-out: AUC0-1): 9.1 ng·h/mL | AUC(0-t) ([2]; male, 30 mg/mL/occasion, male rabbits, 30 mg/mL, 6 daily doses, Week 13, read-out: AUC0-24): 54.6 ng·h/mL | Cmax [2, 15]: 105 ng/mL | Tmax [2, 15]: 4.98 min | AUC(0-t) ([2]; male, 50 mg/mL/occasion, male rabbits, 50 mg/mL, 6 daily doses, Day 1, read-out: AUC0-1): 14.4 ng·h/mL | AUC(0-t) ([2]; male, 50 mg/mL/occasion, male rabbits, 50 mg/mL, 6 daily doses, Day 1, read-out: AUC0-24): 86.4 ng·h/mL | Cmax [2, 16]: 80.4 ng/mL | Tmax [2, 16]: 4.98 min | AUC(0-t) ([2]; male, 50 mg/mL/occasion, male rabbits, 50 mg/mL, 6 daily doses, Week 4, read-out: AUC0-1): 17.9 ng·h/mL | AUC(0-t) ([2]; male, 50 mg/mL/occasion, male rabbits, 50 mg/mL, 6 daily doses, Week 4, read-out: AUC0-24): 107 ng·h/mL | Cmax [2, 17]: 32.2 ng/mL | Tmax [2, 17]: 4.98 min | AUC(0-t) ([2]; male, 50 mg/mL/occasion, male rabbits, 50 mg/mL, 6 daily doses, Week 13, read-out: AUC0-1): 17.6 ng·h/mL | AUC(0-t) ([2]; male, 50 mg/mL/occasion, male rabbits, 50 mg/mL, 6 daily doses, Week 13, read-out: AUC0-24): 106 ng·h/mL | Cmax [2, 18]: 66.3 ng/mL | Tmax [2, 18]: 4.98 min | AUC(0-t) ([2]; male, 50 mg/mL/occasion, male rabbits, 50 mg/mL, 12 daily doses, Day 1, read-out: AUC0-1): 12.1 ng·h/mL | AUC(0-t) ([2]; male, 50 mg/mL/occasion, male rabbits, 50 mg/mL, 12 daily doses, Day 1, read-out: AUC0-24): 145 ng·h/mL | Cmax [2, 19]: 41.4 ng/mL | Tmax [2, 19]: 4.98 min | AUC(0-t) ([2]; male, 50 mg/mL/occasion, male rabbits, 50 mg/mL, 12 daily doses, Week 4, read-out: AUC0-1): 11.6 ng·h/mL | AUC(0-t) ([2]; male, 50 mg/mL/occasion, male rabbits, 50 mg/mL, 12 daily doses, Week 4, read-out: AUC0-24): 139 ng·h/mL | Cmax [2, 20]: 38.1 ng/mL | Tmax [2, 20]: 30 min | AUC(0-t) ([2]; male, 50 mg/mL/occasion, male rabbits, 50 mg/mL, 12 daily doses, Week 14, read-out: AUC0-1): 19.6 ng·h/mL | AUC(0-t) ([2]; male, 50 mg/mL/occasion, male rabbits, 50 mg/mL, 12 daily doses, Week 14, read-out: AUC0-24): 235 ng·h/mL
